We go through 23 compounds from patent US20080234262A1 (Wyeth, priority 2007, published 2008).

One experiment relates to prostate line LNCap. Kind of experiment: In vitro cell culture growth assay (MTS), LNCap.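 Also: viable cell density read by absorbance at 490 nm, growth expressed as percent of vehicle-treated cells on the same plate.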 The experiment is classed as cell-based, human. Particulars: Homo sapiens, LNCaP, 72 h, LNCap cells, three days after drug treatment.
A further experiment has as its system breast line MDA468. Kind of experiment: In vitro cell culture growth assay (MTS), MDA468. The experiment is classed as cell-based, human. Conditions: MDA468 cells, three days after drug treatment. In a few lines: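 Steps: plate cells; add inhibitors the next day; incubate 3 days; add MTS dye, which viable cells convert metabolically; measure absorbance at 490 nm; calculate percent of control growth relative to vehicle-treated cells in the same plate.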

A further experiment has as its target PI3K (Homo sapiens, UniProt P42336). Description: Fluorescence polarization assay for PI3K.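 Also: PI3K kinase reaction on PIP2 with ATP, 30-60 min, product sensed by GST-GRP with red probe in fluorescence polarization (mP), controls without enzyme and at zero time.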 In kind it is biochemical. Particulars: PI3Kα; read-out: PI3Kα IC50. (Polarisation of emitted light reports the rotation of a fluorescent probe.)

PI3K, sequence (P42336 whole entry): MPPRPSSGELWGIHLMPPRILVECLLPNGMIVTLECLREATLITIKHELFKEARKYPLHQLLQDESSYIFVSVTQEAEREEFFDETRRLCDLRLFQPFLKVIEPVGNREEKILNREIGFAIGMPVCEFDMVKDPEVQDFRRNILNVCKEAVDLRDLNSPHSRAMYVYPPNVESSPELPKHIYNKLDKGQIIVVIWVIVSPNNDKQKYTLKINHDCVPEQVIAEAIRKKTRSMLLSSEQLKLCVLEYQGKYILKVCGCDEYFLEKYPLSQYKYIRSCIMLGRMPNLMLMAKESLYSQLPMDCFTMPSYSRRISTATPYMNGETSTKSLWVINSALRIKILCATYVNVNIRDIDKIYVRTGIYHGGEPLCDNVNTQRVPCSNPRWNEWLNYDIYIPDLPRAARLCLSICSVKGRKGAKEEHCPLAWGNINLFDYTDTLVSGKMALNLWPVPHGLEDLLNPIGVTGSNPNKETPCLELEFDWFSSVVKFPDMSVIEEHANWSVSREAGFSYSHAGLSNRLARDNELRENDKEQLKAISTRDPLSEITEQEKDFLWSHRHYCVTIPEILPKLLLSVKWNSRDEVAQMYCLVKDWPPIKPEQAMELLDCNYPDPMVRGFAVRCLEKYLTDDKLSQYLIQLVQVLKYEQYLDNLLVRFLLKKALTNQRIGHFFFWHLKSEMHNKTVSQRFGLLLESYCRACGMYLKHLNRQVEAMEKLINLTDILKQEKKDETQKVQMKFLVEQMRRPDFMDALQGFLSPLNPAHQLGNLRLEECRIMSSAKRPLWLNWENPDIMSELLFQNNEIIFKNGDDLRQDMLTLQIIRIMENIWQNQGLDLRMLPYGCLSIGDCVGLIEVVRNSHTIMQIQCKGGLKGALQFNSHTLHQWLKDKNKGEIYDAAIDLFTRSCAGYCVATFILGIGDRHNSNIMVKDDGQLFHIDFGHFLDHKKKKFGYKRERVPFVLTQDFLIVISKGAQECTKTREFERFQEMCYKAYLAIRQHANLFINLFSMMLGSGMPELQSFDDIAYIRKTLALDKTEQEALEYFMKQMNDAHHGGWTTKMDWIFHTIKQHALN
PI3K, sequence (P27986 whole entry partner): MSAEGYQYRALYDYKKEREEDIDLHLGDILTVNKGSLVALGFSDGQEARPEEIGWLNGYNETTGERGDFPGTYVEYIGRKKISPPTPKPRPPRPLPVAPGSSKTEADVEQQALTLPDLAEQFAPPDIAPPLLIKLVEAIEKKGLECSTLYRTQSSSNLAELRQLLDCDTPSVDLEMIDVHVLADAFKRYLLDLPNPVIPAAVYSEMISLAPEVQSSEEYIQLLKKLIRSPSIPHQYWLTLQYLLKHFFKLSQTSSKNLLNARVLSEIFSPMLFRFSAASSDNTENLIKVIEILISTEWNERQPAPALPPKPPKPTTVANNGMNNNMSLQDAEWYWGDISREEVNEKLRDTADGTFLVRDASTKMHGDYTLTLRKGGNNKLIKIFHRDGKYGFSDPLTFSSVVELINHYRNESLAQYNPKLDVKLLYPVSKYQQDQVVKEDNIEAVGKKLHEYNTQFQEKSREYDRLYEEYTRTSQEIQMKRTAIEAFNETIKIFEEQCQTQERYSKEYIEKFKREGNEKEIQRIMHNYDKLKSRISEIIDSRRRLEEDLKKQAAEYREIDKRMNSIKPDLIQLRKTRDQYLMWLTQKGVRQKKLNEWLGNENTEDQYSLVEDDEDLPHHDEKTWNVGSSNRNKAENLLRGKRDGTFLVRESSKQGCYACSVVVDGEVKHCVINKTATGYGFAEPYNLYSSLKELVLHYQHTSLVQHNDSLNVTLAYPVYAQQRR

In the case of `CNC(=O)Nc1ccc(-c2nc(N3CCOCC3)c3cnn(C4CCN(Cc5ccc(F)nc5)CC4)c3n2)cc1` [Example 387, 1-[4-(1-{1-[(6-fluoropyridin-3-yl)methyl]piperidin-4-yl}-4-morpholin-4-yl-1H-pyrazolo[3,4-d]pyrimidin-6-yl)phenyl]-3-methylurea], the IC50 with prostate line LNCap was determined as 35 nM; in the experiment on breast line MDA468 (Homo sapiens, 72 h) it was 100 nM; at PI3K, 109 nM.
As for `CNC(=O)Nc1ccc(-c2nc(N3CCOCC3)c3cnn(C4CCN(Cc5ccc(Cl)nc5)CC4)c3n2)cc1` [Example 388, 1-[4-(1-{1-[(6-chloropyridin-3-yl)methyl]piperidin-4-yl}-4-morpholin-4-yl-1H-pyrazolo[3,4-d]pyrimidin-6-yl)phenyl]-3-methylurea], the IC50 is 27 nM with prostate line LNCap, 100 nM in the experiment on breast line MDA468 and 47 nM on PI3K.
For `CNC(=O)Nc1ccc(-c2nc(N3CCOCC3)c3cnn(C4CCN(Cc5ccc(Br)nc5)CC4)c3n2)cc1` [Example 389, 1-[4-(1-{1-[(6-bromopyridin-3-yl)methyl]piperidin-4-yl}-4-morpholin-4-yl-1H-pyrazolo[3,4-d]pyrimidin-6-yl)phenyl]-3-methylurea], the IC50 was 27 nM in the experiment on prostate line LNCap; 100 nM in the experiment on breast line MDA468 (Homo sapiens, 72 h); 31 nM at PI3K.
The like results for `CNC(=O)Nc1ccc(-c2nc(N3CCOCC3)c3cnn(C4CCN(Cc5cccnc5Cl)CC4)c3n2)cc1` [Example 390, 1-[4-(1-{1-[(2-chloropyridin-3-yl)methyl]piperidin-4-yl}-4-morpholin-4-yl-1H-pyrazolo[3,4-d]pyrimidin-6-yl)phenyl]-3-methylurea] were, in that order, 45 nM, 100 nM and 90 nM.
Consider `CNC(=O)Nc1ccc(-c2nc(N3CCOCC3)c3cnn(C4CCN(Cc5cnccc5OC)CC4)c3n2)cc1` [Example 391, 1-[4-(1-{1-[(4-methoxypyridin-3-yl)methyl]piperidin-4-yl}-4-morpholin-4-yl-1H-pyrazolo[3,4-d]pyrimidin-6-yl)phenyl]-3-methylurea], for which the IC50 in the experiment with prostate line LNCap was 70 nM; with breast line MDA468 (Homo sapiens, 72 h), 200 nM; on PI3K it was 82 nM.
The like results for `CNC(=O)Nc1ccc(-c2nc(N3CCOCC3)c3cnn(C4CCN(Cc5cncc(F)c5)CC4)c3n2)cc1` [Example 392, 1-[4-(1-{1-[(5-fluoropyridin-3-yl)methyl]piperidin-4-yl}-4-morpholin-4-yl-1H-pyrazolo[3,4-d]pyrimidin-6-yl)phenyl]-3-methylurea] were, in that order, 110 nM, 600 nM and 153 nM.
As for `CNC(=O)Nc1ccc(-c2nc(N3CCOCC3)c3cnn(C4CCN(Cc5cncc(Br)c5)CC4)c3n2)cc1` [Example 393, 1-[4-(1-{1-[(5-bromopyridin-3-yl)methyl]piperidin-4-yl}-4-morpholin-4-yl-1H-pyrazolo[3,4-d]pyrimidin-6-yl)phenyl]-3-methylurea], the IC50 in the experiment on prostate line LNCap came to 95 nM; in the experiment on breast line MDA468 (Homo sapiens, 72 h) it was 600 nM; on PI3K it was 72 nM.
Consider `CNC(=O)Nc1ccc(-c2nc(N3CCOCC3)c3cnn(C4CCN(Cc5ccc(Cl)cc5)CC4)c3n2)cc1` [Example 394, 1-(4-{1-[1-(4-chlorobenzyl)piperidin-4-yl]-4-morpholin-4-yl-1H-pyrazolo[3,4-d]pyrimidin-6-yl}phenyl)-3-methylurea], for which the half-inhibitory concentration (IC50) in the experiment with prostate line LNCap stood at 60 nM; in the experiment on breast line MDA468 (Homo sapiens, 72 h), 300 nM; on PI3K, 18 nM.
The corresponding values for `CNC(=O)Nc1ccc(-c2nc(N3CCOCC3)c3cnn(C4CCN(Cc5cccc(Cl)c5)CC4)c3n2)cc1` [Example 395, 1-(4-{1-[1-(3-chlorobenzyl)piperidin-4-yl]-4-morpholin-4-yl-1H-pyrazolo[3,4-d]pyrimidin-6-yl}phenyl)-3-methylurea] are 100 nM, 500 nM and 42 nM.
The corresponding values for `CNC(=O)Nc1ccc(-c2nc(N3CCOCC3)c3cnn(C4CCN(Cc5ccccc5Cl)CC4)c3n2)cc1` [Example 396, 1-(4-{1-[1-(2-chlorobenzyl)piperidin-4-yl]-4-morpholin-4-yl-1H-pyrazolo[3,4-d]pyrimidin-6-yl}phenyl)-3-methylurea] are 38 nM, 200 nM and 35 nM.
As for `CNC(=O)Nc1ccc(-c2nc(N3CCOCC3)c3cnn(C4CCN(Cc5cccc(O)c5)CC4)c3n2)cc1` [Example 397, 1-(4-{1-[1-(3-hydroxybenzyl)piperidin-4-yl]-4-morpholin-4-yl-1H-pyrazolo[3,4-d]pyrimidin-6-yl}phenyl)-3-methylurea], the IC50 was found to be 140 nM with prostate line LNCap; 400 nM with breast line MDA468 (Homo sapiens, 72 h); 28 nM at PI3K.
The like results for `CNC(=O)Nc1ccc(-c2nc(N3CCOCC3)c3cnn(C4CCN(Cc5ccc(OC)c(O)c5)CC4)c3n2)cc1` [Example 398, 1-(4-{1-[1-(3-hydroxy-4-methoxybenzyl)piperidin-4-yl]-4-morpholin-4-yl-1H-pyrazolo[3,4-d]pyrimidin-6-yl}phenyl)-3-methylurea] were, in that order, 150 nM, 600 nM and 57 nM.
The corresponding values for `CNC(=O)Nc1ccc(-c2nc(N3CCOCC3)c3cnn(C4CCN(Cc5ccccc5O)CC4)c3n2)cc1` [Example 399, 1-(4-{1-[1-(2-hydroxybenzyl)piperidin-4-yl]-4-morpholin-4-yl-1H-pyrazolo[3,4-d]pyrimidin-6-yl}phenyl)-3-methylurea] are 60 nM, 300 nM and 37 nM.
As for `CNC(=O)Nc1ccc(-c2nc(N3CCOCC3)c3cnn(C4CCN(Cc5cccc(OC)c5)CC4)c3n2)cc1` [Example 400, 1-(4-{1-[1-(3-methoxybenzyl)piperidin-4-yl]-4-morpholin-4-yl-1H-pyrazolo[3,4-d]pyrimidin-6-yl}phenyl)-3-methylurea], the IC50 in the experiment with prostate line LNCap stood at 70 nM; with breast line MDA468 (Homo sapiens, 72 h) it was 500 nM; at PI3K, 43 nM.
The like results for `CNC(=O)Nc1ccc(-c2nc(N3CCOCC3)c3cnn(C4CCN(Cc5ccco5)CC4)c3n2)cc1` [Example 402, 1-(4-{1-[1-(2-furylmethyl)piperidin-4-yl]-4-morpholin-4-yl-1H-pyrazolo[3,4-d]pyrimidin-6-yl}phenyl)-3-methylurea] were, in that order, 27 nM, 500 nM and 63 nM.
The corresponding values for `CNC(=O)Nc1ccc(-c2nc(N3CCOCC3)c3cnn(C4CCOCC4)c3n2)cc1` [Example 403, 1-methyl-3-{4-[4-morpholin-4-yl-1-(tetrahydro-2H-pyran-4-yl)-1H-pyrazolo[3,4-d]pyrimidin-6-yl]phenyl}urea] are 103 nM, 400 nM and 45 nM.
The corresponding values for `O=C(Nc1ccc(-c2nc(N3CCOCC3)c3cnn(C4CCN(Cc5cccnc5)CC4)c3n2)cc1)Nc1cccs1` [Example 404, 1-(4-{4-morpholin-4-yl-1-[1-(pyridin-3-ylmethyl)piperidin-4-yl]-1H-pyrazolo[3,4-d]pyrimidin-6-yl}phenyl)-3-(2-thienyl)urea] are 27 nM, 100 nM and 9 nM.
In the case of `O=C(Nc1ccc(-c2nc(N3CCOCC3)c3cnn(C4CCN(Cc5cccnc5)CC4)c3n2)cc1)NC1CC1` [Example 405, 1-cyclopropyl-3-(4-{4-morpholin-4-yl-1-[1-(pyridin-3-ylmethyl)piperidin-4-yl]-1H-pyrazolo[3,4-d]pyrimidin-6-yl}phenyl)urea], the IC50 with prostate line LNCap was determined as 27 nM; in the experiment on breast line MDA468 (Homo sapiens, 72 h), 100 nM; on PI3K, 438 nM.
The corresponding values for `CNC(=NC#N)Nc1ccc(-c2nc(N3CCOCC3)c3cnn(C4CCN(Cc5cccnc5)CC4)c3n2)cc1` [Example 407, 2-cyano-1-methyl-3-(4-{4-morpholin-4-yl-1-[1-(pyridin-3-ylmethyl)piperidin-4-yl]-1H-pyrazolo[3,4-d]pyrimidin-6-yl}phenyl)guanidine] are 1700 nM, 3800 nM and 774 nM.
The corresponding values for `CCNC(=NC#N)Nc1ccc(-c2nc(N3CCOCC3)c3cnn(C4CCN(Cc5cccnc5)CC4)c3n2)cc1` [Example 408, 2-cyano-1-ethyl-3-(4-{4-morpholin-4-yl-1-[1-(pyridin-3-ylmethyl)piperidin-4-yl]-1H-pyrazolo[3,4-d]pyrimidin-6-yl}phenyl)guanidine] are 890 nM, 3200 nM and 916 nM.
As to `N#CNC(=O)Nc1ccc(-c2nc(N3CCOCC3)c3cnn(C4CCN(Cc5cccnc5)CC4)c3n2)cc1` [Example 409, N′-cyano-N-(4-{4-morpholin-4-yl-1-[1-(pyridin-3-ylmethyl)piperidin-4-yl]-1H-pyrazolo[3,4-d]pyrimidin-6-yl}phenyl)carbamimidic acid], the IC50 in the experiment with prostate line LNCap turned out to be 800 nM; with breast line MDA468 (Homo sapiens, 72 h) it was 2500 nM; on PI3K, 363 nM.
The corresponding values for `COC(=NC#N)Nc1ccc(-c2nc(N3CCOCC3)c3cnn(C4CCN(Cc5cccnc5)CC4)c3n2)cc1` [Example 410, methyl N′-cyano-N-(4-{4-morpholin-4-yl-1-[1-(pyridin-3-ylmethyl)piperidin-4-yl]-1H-pyrazolo[3,4-d]pyrimidin-6-yl}phenyl)imidocarbamate] are 2200 nM, 1300 nM and 593 nM.
The corresponding values for `N#CN=C(N)Nc1ccc(-c2nc(N3CCOCC3)c3cnn(C4CCN(C(=O)c5cccnc5)CC4)c3n2)cc1` [Example 411, 2-cyano-1-(4-{4-morpholin-4-yl-1-[1-(pyridin-3-ylcarbonyl)piperidin-4-yl]-1H-pyrazolo[3,4-d]pyrimidin-6-yl}phenyl)guanidine] are 20000 nM, 12000 nM and 344 nM.

For orientation: IC50 means the concentration at which inhibition is half-maximal.
